Drawing on patent US8263590B2, “Pyrimidine derivatives” (priority 2003, dated 2012), this text covers IC50 for 26 compounds.

By IC50 is commonly meant the point on the concentration scale where inhibition reaches its midpoint. Higher therefore signals weaker potency in that assay.

In the experiment the test system is Jurkat T human leukemic cell line. Briefly: In vitro T cell migration assay. The format is cell-based. As for the experimental part:
Inhibitory activities of FAK inhibitors on the mobility of immune cells are secured by the following in vitro study. […] Cell mobility is appraised through the number of cells migrated into lower chamber by labeling with calcein-AM (Molecular Probes, Netherlands) at 8 μg/ml in HBSS for 1 h.
`CNS(=O)(=O)c1ccccc1Nc1nc(Nc2cc(N3CCOCC3)ccc2OC)ncc1Br` [Example 3-32] returned an IC50 of 280 nM.
As to `CNS(=O)(=O)c1ccccc1Nc1nc(Nc2ccc(OC3CCN(C)CC3)cc2OC)ncc1Br` [Example 3-33], the midpoint of inhibition, the IC50, lay at 90 nM.
In the case of `CNS(=O)(=O)c1ccccc1Nc1nc(Nc2cc(N3CCN(C(C)=O)CC3)ccc2OC)ncc1Br` [Example 3-34], it took 130 nM to reach half-maximal inhibition (IC50).
For `CNS(=O)(=O)c1ccccc1Nc1nc(Nc2cc(OCCN3CCOCC3)ccc2OC)ncc1Br` [Example 3-35] the value was 800 nM.
Turning to `CNS(=O)(=O)c1ccccc1Nc1nc(Nc2ccc(N3CCN(C)CC3)cc2OC)ncc1Br` [Example 3-39], the IC50 came out at 1000 nM.
`CNS(=O)(=O)c1ccccc1Nc1nc(Nc2ccc(N3CCN(C(C)=O)CC3)cc2OC)ncc1Br` [Example 3-46]: the IC50 came to 300 nM.
In turn, `CNS(=O)(=O)c1ccccc1Nc1nc(Nc2cc(N(C)C)ccc2OC)ncc1Br` [Example 3-64] had an IC50 of 210 nM.
Turning to `CNS(=O)(=O)c1ccccc1Nc1nc(Nc2ccc(N3CCCC(C(N)=O)C3)cc2OC)ncc1Br` (centres unmarked) [Example 3-68], inhibition was half-maximal at 1000 nM (IC50).
`CNS(=O)(=O)c1ccccc1Nc1nc(Nc2cc(N3CCC(N4CCCCC4)CC3)ccc2OC)ncc1Br` [Example 3-69] registered an IC50 of 580 nM.
In the case of `CNS(=O)(=O)c1ccccc1Nc1nc(Nc2cc(OC3CCN(C)CC3)ccc2OC)ncc1Br` [Example 3-76], the IC50 came to 700 nM.
`CNC(=O)c1ccccc1Nc1nc(Nc2cc(N3CCOCC3)ccc2OC)ncc1Cl` [Example 7-6] registered an IC50 of 250 nM.
In the case of `CNC(=O)c1ccccc1Nc1nc(Nc2ccc(N3CCC(NC)C3)cc2OC)ncc1Cl` (centres unmarked) [Example 7-12], inhibition was half-maximal at 310 nM (IC50).
`CNC(=O)c1ccccc1Nc1nc(Nc2cc(N3CCN(C(C)=O)CC3)ccc2OC)ncc1Cl` [Example 7-30] registered an IC50 of 1000 nM.
The compound `CNC(=O)c1ccccc1Nc1nc(Nc2ccc(N3CCOCC3)cc2OC)ncc1Cl` [Example 7A, 2-[5-Chloro-2-(2-methoxy-4-morpholin-4-yl-phenylamino)-pyrimidin-4-ylamino]-N-methyl-benzamide] showed an IC50 of 40 nM.
For `CCNC(=O)c1ccccc1Nc1nc(Nc2ccc(N3CCOCC3)cc2OC)ncc1Cl` [Example 9-1] the value was 600 nM.
`CCNC(=O)c1ccccc1Nc1nc(Nc2ccc(OC3CCN(C)CC3)cc2OC)ncc1Cl` [Example 9-6] had an IC50 of 300 nM.
With `COc1cc(N2CCOCC2)ccc1Nc1ncc(Cl)c(Nc2cccc3c2C(=O)N(C)C3)n1` [Example 12-1, 7-[5-Chloro-2-(2-methoxy-4-morpholin-4-yl-phenylamino)-pyrimidin-4-ylamino]-2-methyl-2,3-dihydro-isoindol-1-one], the midpoint of inhibition, the IC50, lay at 220 nM.
For `COc1cc(N2CCOCC2)ccc1Nc1ncc(Cl)c(Nc2ccccc2C(=O)N(C)C)n1` [Example 14-1] the value was 280 nM; for `COc1cc(N2CCOCC2)ccc1Nc1ncc(Cl)c(Nc2ccccc2C(=O)NC(C)C)n1` [Example 14-2], 1000 nM; for `CNC1CCN(c2ccc(Nc3ncc(Cl)c(Nc4ccccc4S(=O)(=O)NC(C)C)n3)c(OC)c2)C1` (centres unmarked) [Example 19-1], 290 nM.
In turn, `COc1cc(N2CCOCC2)ccc1Nc1ncc(Cl)c(Nc2ccccc2S(=O)(=O)NC(C)C)n1` [Example 19-8] showed an IC50 of 290 nM.
For `COc1cc(N2CCC(N(C)C)C2)ccc1Nc1ncc(Cl)c(Nc2ccccc2S(=O)(=O)NC(C)C)n1` (centres unmarked) [Example 19-9], half-maximal inhibition (IC50) required 300 nM.
In turn, `CC(C)NS(=O)(=O)c1ccccc1Nc1nc(Nc2ccc(OC3CCN(C)CC3)cc2F)ncc1Cl` [Example 19-28] gave a concentration for half-maximal inhibition (IC50) of 300 nM.
Compound `CNS(=O)(=O)c1ccccc1Nc1nc(Nc2ccc(N3CCOCC3)cc2OC)ncc1Cl` [Example 20-1] gave an IC50 of 250 nM.
For `CNS(=O)(=O)c1ccccc1Nc1nc(Nc2ccc(N3CCN(C(C)=O)CC3)cc2OC)ncc1Cl` [Example 20-2] the value was 750 nM; for `CNS(=O)(=O)c1ccccc1Nc1nc(Nc2ccc(N3CCN(C)CC3)cc2OC)ncc1Cl` [Example 20-6], 49000 nM.
